The values that follow are results of earlier work, collected in patent US7943615B2, “Fused aminopiperidines as dipeptidyl peptidase-4 inhibitors for the treatment or prevention of diabetes” (Merck Sharp & Dohme Corp., priority 2005, dated 2011).

One data set has as its system cardiac allograft. The following applies: rats; doubled from day 7.
The subject of a further data set is hematopoiesis. The note with it: mouse, cyclophosphamide-induced neutropenia.
The target in the next data set is T1, DPP-4 (Homo sapiens, UniProt P27487).
T1 construct: GRF is rapidly degraded in plasma to GRF[344]
T1 sequence (P27487 whole entry, species assumed): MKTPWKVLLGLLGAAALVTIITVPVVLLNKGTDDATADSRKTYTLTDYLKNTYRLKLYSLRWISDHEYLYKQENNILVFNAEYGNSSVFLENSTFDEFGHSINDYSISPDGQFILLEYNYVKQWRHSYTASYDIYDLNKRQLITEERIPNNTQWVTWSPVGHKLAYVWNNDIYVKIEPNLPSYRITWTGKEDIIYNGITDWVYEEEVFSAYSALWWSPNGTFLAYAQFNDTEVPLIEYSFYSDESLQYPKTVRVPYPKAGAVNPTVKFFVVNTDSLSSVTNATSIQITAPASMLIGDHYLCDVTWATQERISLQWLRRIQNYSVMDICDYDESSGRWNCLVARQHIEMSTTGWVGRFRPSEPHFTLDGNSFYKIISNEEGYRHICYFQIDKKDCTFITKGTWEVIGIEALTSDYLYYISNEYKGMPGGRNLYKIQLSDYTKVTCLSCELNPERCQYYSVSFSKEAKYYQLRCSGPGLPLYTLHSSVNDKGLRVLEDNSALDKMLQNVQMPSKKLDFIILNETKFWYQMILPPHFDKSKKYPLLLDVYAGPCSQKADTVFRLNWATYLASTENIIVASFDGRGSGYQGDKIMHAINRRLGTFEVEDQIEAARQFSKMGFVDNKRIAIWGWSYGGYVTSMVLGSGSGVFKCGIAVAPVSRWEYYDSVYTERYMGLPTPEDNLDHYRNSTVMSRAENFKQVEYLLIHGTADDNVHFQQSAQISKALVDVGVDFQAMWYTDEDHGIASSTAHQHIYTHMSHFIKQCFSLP

For the molecule `CC(C)N1CCC(c2ccccc2)(c2ccccc2)CC1` [Prodipine, Pro-Pro-diphenyl-phosphonate], in the data set with cardiac allograft, the cardiac allograft survival was 14 day.
`CC(C)[C@H](N)C(=O)N1CCC[C@H]1B(O)O` [Val-Boro-Pro]: the effect on hematopoiesis entry in the data set with hematopoiesis was “stimulated hematopoiesis”.
Take diprotin A: at DPP-4, the “effect on degradation of GRF in plasma” value is recorded as “prevented”.
